Assay results as given in paper doi:10.1101/2024.02.28.582502, “Magnesium Transporter MgtA revealed as a Dimeric P-type ATPase” (bioRxiv, 2024).

Tests used:
[1] = biological target: T1, MgtA (Escherichia coli, UniProt P0ABB8); experiment: cryo-EM map density ([…] Å), ligand not modelled; conditions: 5 mM ADP, 5 mM MgCl2, pH 7.5, GDN, dimer, nucleotide binding site
T1 construct: full length, 898 aa, 100 kDa; pETDuet-1-MgtAS (co-expressed with MgtS, no MgtS density seen), E. coli C43(DE3); Ni-NTA and SEC in GDN; predominantly homodimer for cryo-EM, predominantly monomer in DDM for HDX-MS
T1 sequence (P0ABB8 1-898): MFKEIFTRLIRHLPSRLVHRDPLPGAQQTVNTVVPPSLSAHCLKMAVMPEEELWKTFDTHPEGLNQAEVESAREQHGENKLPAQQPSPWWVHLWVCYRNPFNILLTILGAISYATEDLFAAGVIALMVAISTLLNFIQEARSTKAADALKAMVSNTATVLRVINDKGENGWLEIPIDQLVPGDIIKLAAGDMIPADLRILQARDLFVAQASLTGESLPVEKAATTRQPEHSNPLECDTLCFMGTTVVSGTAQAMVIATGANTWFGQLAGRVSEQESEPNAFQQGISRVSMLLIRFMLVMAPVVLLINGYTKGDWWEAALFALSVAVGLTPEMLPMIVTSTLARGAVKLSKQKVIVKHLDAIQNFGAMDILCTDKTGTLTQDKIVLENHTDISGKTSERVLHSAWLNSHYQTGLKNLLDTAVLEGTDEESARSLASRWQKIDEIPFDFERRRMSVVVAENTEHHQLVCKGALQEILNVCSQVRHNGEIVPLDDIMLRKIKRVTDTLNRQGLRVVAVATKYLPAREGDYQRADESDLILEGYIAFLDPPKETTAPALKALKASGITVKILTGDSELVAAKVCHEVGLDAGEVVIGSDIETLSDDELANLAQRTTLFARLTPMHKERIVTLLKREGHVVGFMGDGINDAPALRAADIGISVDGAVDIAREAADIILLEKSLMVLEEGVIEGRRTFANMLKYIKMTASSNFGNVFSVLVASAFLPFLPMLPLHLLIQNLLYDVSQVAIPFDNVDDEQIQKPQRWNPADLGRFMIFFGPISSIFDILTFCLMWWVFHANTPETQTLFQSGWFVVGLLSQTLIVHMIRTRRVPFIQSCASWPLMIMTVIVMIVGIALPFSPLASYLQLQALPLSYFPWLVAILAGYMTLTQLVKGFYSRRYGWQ

[2] = biological target: T1, MgtA; experiment: cryo-EM structure ([…] Å); HDX-MS; conditions: cryo-EM: 5 mM ATP, 5 mM MgCl2, pH 7.5, GDN, dimer, nucleotide binding site; HDX-MS: 5 mM ATP, 5 mM MgSO4, DDM, mainly monomer
[3] = biological target: T1, MgtA; experiment: cryo-EM structure ([…] Å); HDX-MS; conditions: cryo-EM: 5 mM ATPγS, 5 mM MgCl2, pH 7.5, GDN, dimer, nucleotide binding site; HDX-MS: 5 mM ATPγS, 5 mM MgSO4, DDM, mainly monomer
[4] = biological target: the molecule itself; experiment: cryo-EM structure; single-particle cryo-EM of GDN-purified MgtA, 5 mM MgCl2, 0.007% GDN; without nucleotide or with 5 mM ATP, ATPγS or ADP

## Nc1ncnc2c1ncn2[C@@H]1O[C@H](COP(=O)(O)OP(=O)(O)O)[C@@H](O)[C@H]1O [ADP]
[1]
  cryo-EM map density (3.75 Å), ligand not modelled: some ADP can enter the nucleotide binding pocket but cannot be bound as tightly

## Nc1ncnc2c1ncn2[C@@H]1O[C@H](COP(=O)(O)OP(=O)(O)OP(=O)(O)O)[C@@H](O)[C@H]1O [ATP]
[2]
  cryo-EM structure (3.72 Å); HDX-MS: Cryo-EM structures of the MgtA dimer bound to the ligands ATP, ATPgS, and ADP

## Nc1ncnc2c1ncn2[C@@H]1O[C@H](COP(=O)(O)OP(=O)(O)OP(O)(O)=S)[C@@H](O)[C@H]1O [ATPγS]
[3]
  cryo-EM structure (3.87 Å); HDX-MS: MgtA with ATPγS, though resolved at slightly lower resolution, was structurally similar to MgtA with ATP

B1: Escherichia coli magnesium transporter MgtA (from pETDuet-1-MgtAS, co-overexpressed with MgtS) (natural protein)
chain: T1 sequence (P0ABB8 1-898)
notes: MgtA, E. coli, P-type ATPase Mg2+ transporter, 100 kDa, 898 amino acids; residues from the N-terminal tail (1-36) on are modelled in the dimer structure; That the His tag stands on MgtA is inferred from its elution from Ni-NTA; also called EcMgtA; MgtAS (the purified sample); source: E. coli C43 (DE3), pETDuet-1-MgtAS, co-overexpressed with MgtS; membranes solubilised with 1% GDN (or DDM, LMNG); …
[4]
  stoichiometry N: 2
